Measurements: patent US20230293535A1, “ERBB/BTK INHIBITORS” (Dizal (Jiangsu) Pharmaceutical Co., Ltd., priority 2018, published 2023)

Experiments:
Type in all cases: cell-based
[1] = tested on: NCI-H1975 EGFR L858R/T790M cells; assay: Cell proliferation, NCI-H1975 EGFR L858R/T790M (CellTiter-Glo, 72 h); conditions: Homo sapiens, NCI-H1975, 72 h, NCI-H1975, 72 h proliferation; read-out: EGFR L858R and T790M mutation GI50;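 also: viable cells quantified by luciferase-based ATP luminescence, proliferation expressed relative to DMSO-treated wells (100%) after subtracting a parallel plate read at the time of dosing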
[2] = tested on: Her2 exon 20 insertion YVMA transduced NIH-3T3 cell line; assay: Cell proliferation, Her2 YVMAins NIH-3T3 (CellTiter-Glo, 72 h); conditions: Mus musculus, NIH3T3, 72 h, Her2 YVMAins cells, 72 h proliferation; read-out: Her2 Exon 20 YVMA insertion GI50;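 also: viable cells quantified by ATP luminescence, growth over a day-zero baseline plate expressed as percent of DMSO control growth, compound dilution series in 10% FBS medium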
Ri-1 cells = assay: BTK (wt) cell proliferation, Ri-1 (CellTiter-Glo, 72 h); conditions: Ri-1, 72 h, Ri-1 cells, 72 h, CellTiter-Glo; read-out: BTK WT Ri-1 GI50;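 also: viable cells quantified as cellular ATP luminescence, proliferation normalized to a time-zero plate and the DMSO control, compounds tested across a dilution series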
WT EGFR cell line A-431 = assay: Cell proliferation, WT EGFR A431 (CellTiter-Glo, 72 h); conditions: Homo sapiens, A-431, 72 h, A431, 72 h proliferation; read-out: EGFR WT A431 GI50;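 also: proliferation from a luminescent ATP viability signal, expressed as 100 × (treated minus time-zero plate) over (DMSO control minus time-zero plate), cells grown with 10% FBS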
[3] = target: T1, human EGFR exon 20 H773_V774insNPH (Homo sapiens, UniProt P00533, INS773NPH); assay: EGFR Exon20 NPH insertion cellular phosphorylation inhibition (MSD pEGFR Y1068/total EGFR); conditions: Ba/F3 EGFR NPH ins cells, 4 h compound, p-EGFR(Y1068)/total EGFR;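 also: IL3-independent Ba/F3 cells with constitutively phosphorylated EGFR, compound exposure at 37 °C under 5% CO2, electrochemiluminescent MSD measurement of the p-EGFR to total EGFR ratio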
T1 construct: host or cells: Ba/F3

OCI-LY-10 cells = assay: BTK (wt) cell proliferation, OCI-LY-10 (CellTiter-Glo, 72 h); conditions: Homo sapiens, OCI-Ly10, 72 h, OCI-LY-10 cells, 72 h, CellTiter-Glo; read-out: BTK WT OCI-LY-10 GI50;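 also: viable cells quantified via cellular ATP luminescence, proliferation given as percent of DMSO control after subtracting a duplicate plate read at time of dosing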
DB cells = assay: BTK (wt) cell proliferation, DB (CellTiter-Glo, 72 h); conditions: Homo sapiens, DB, DB cells, CellTiter-Glo, read-out: Non-BCR activated DB GI50;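 also: DB cells in 384-well plates given a dilution series of compound, viable cells read by ATP luminescence, growth expressed versus DMSO control after subtracting a time-zero plate reading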
WT EGFR = target: T2, WT EGFR (Homo sapiens, UniProt P00533); assay: WT EGFR cellular phosphorylation inhibition in A-431 (hEGF stimulated, MSD); conditions: A431 cells, 4 h compound, then 100 ng/ml hEGF 10 min;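 also: electrochemiluminescence read-out of EGFR Tyr1068 phosphorylation expressed as ratio to total EGFR, cells kept in medium with 1% FBS, compounds tested as a concentration series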
T2 construct: host or cells: A-431

EGFR L858R&T790M = target: T3, EGFR L858R&T790M (Homo sapiens, UniProt P00533, L858R/T790M); assay: EGFR L858R and T790M cellular phosphorylation inhibition in NCI-H1975 (MSD); conditions: NCI-H1975 cells, 4 h compound, p-EGFR(Y1068)/total EGFR; read-out: EGFR L858R and T790M mutation IC50;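 also: phosphorylated and total EGFR detected by electrochemiluminescence, cells exposed to compound in medium containing 1% FBS at 37 °C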
T3 construct: host or cells: NCI-H1975

[4] = target: T4, human EGFR exon 20 V769_D770insASV (Homo sapiens, UniProt P00533, INS769ASV); assay: EGFR Exon20 ASV insertion cellular phosphorylation inhibition (MSD pEGFR Y1068/total EGFR); conditions: Ba/F3 EGFR ASV ins cells, 4 h compound, p-EGFR(Y1068)/total EGFR;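 also: electrochemiluminescent readout on an MSD SECTOR Imager, IL3-independent transduced cells in medium with 1% FBS, compound concentration series at 37 °C and 5% CO2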
T4 construct: expressed in transfected cells; host or cells: Ba/F3 (DSMZ ACC-300), lentiviral transduction, puromycin selection, IL3 depletion

TMD-8 cells = assay: BTK (wt) cell proliferation, TMD-8 (CellTiter-Glo, 72 h); conditions: Homo sapiens, TMD8, 72 h, TMD-8 cells, 72 h, CellTiter-Glo; read-out: BTK WT TMD-8 GI50;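 also: viable cells quantified by ATP-based luminescence, proliferation expressed as percent of DMSO control after subtracting a time-zero baseline plate read at dosing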
[5] = target: T5, human Her2 exon 20 insertion mutation YVMA (Homo sapiens, UniProt P04626, INS775YVMA); assay: Her2 Exon 20 YVMA insertion cellular phosphorylation inhibition (MSD p-Her2 Y1248/total Her2); conditions: Her2 YVMAins cells, 4 h compound;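 also: lentivirally transduced NIH-3T3 cells in 1% FBS medium, electrochemiluminescent MSD read-out, graded compound concentrations at 37 °C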
T5 construct: expressed in transfected cells; host or cells: NIH-3T3, lentiviral transduction, puromycin selection
Procedure: The resulting cell line expressed phosphorylated Her2 protein and its proliferation depended on the mutation gene, which could be used for in vitro PD and anti-proliferation assays.
One day before the test, WT or mutant cells were seeded in 96 well plates at appropriate concentrations with corresponding growth media supplemented with 1% FBS, and incubated overnight. The next day, tested compounds at a series of concentrations were added into each individual well of the plates, and the plates were incubated for 4 h at 37° C. with 5% CO2.
The EGFR (Y1068) phosphorylation level (activity) of cells in each well were then measured with MSD kit named “MULTI-SPOT®96 4-Spot HB Prototype EGFR Triplex [sequence]: pEGFR(Tyr1068),pEGFR(Tyr1173), Total EGFR” according to the manufacturer’s instruction (MESO SCALE DISCOVERY, Cat# N45ZB-1). The assay is an electrochemiluminescent method for determining both phosphorylated and total EGFR of cells with an MSD SECTOR® Imager and the ratio of p-EGFR/total EGFR can be generated by the machine. The Her2 (Y1248) phosphorylation level (activity) of cells in each well were measured with MSD Kit named “Phospho-ErbB2 (Tyr1248) Assay Whole Cell Lysate Kit” according to the manufacturer’s instruction (MESO SCALE DISCOVERY, Cat# K151CLD-3). The assay is an electrochemiluminescent method (MESO SCALE DISCOVERY) for determining both phosphorylated and total Her2 of cells with an MSD SECTOR® Imager and then the ratio of p-Her2/total Her2 can be generated by the machine.

Ba/F3 EGFR ASV ins cells = assay: Cell proliferation, Ba/F3 EGFR ASV ins (CellTiter-Glo, 72 h); conditions: Ba/F3 EGFR, 72 h, Ba/F3 EGFR ASV ins, 72 h proliferation; read-out: EGFR Exon20 ASV insertion GI50;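 also: IL3-independent Ba/F3 cells transduced with EGFR V769_D770insASV, cellular ATP luminescence after compound exposure, growth relative to DMSO control with the day-0 baseline reading subtracted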
Procedure: (§1) WT or mutant cells were seeded in 384 well plates at appropriate concentrations with corresponding growth media supplemented with 10% FBS, for each experiment, identical plates were prepared in duplicates, and the plates were incubated overnight. On the next day, one of each duplicated plates was dosed with tested compounds at a series of concentrations, and another one of the duplicated plate was analysied for G0 value. The dosed plates were incubate for another 72 h at 37° C. with 5% CO2 and the number of viable cells in each well of the G0 plates or the dosed plates were measured by CellTiter-Glo® Luminescent Cell Viability Assay (Promega). This assay is a luminescent method for determining the number viable cells through measurement of cellular ATP concentration by detection of luciferase activity. Detection reagents (15 µl) was dispensed into per well, and the plates were incubate for 30 min at room temperature. Then, the luminescence in each well was measured using the Envision plate reader (PerkinElmer). The percentage of proliferation was calculated based on the formula: %Proliferation= 100 × (G3 value of sample well-Go value)/(G3 value of DMSO control-Go value).

Ba/F3 EGFR NPH ins cells = assay: Cell proliferation, Ba/F3 EGFR NPH ins (CellTiter-Glo, 72 h); conditions: Ba/F3 EGFR, 72 h, Ba/F3 EGFR NPH ins, 72 h proliferation; read-out: EGFR Exon20 NPH insertion GI50;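 also: IL3-independent cells carrying constitutively phosphorylated EGFR, compound dilution series, viable cells quantified by ATP luminescence, growth relative to DMSO wells after subtracting pre-dosing (day 0) baseline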
Procedure: Similar to recombinant human EGFR exon 20 H769_V770insASV Ba/F3 cell line, the recombinant human EGFR exon 20 H773_V774insNPH Ba/F3 cell line also expresses constitutively phosphorylated EGFR protein and proliferates in the absence of IL3, which could be used for in vitro PD and anti-proliferation assays.
as §1

T1 sequence (P00533 with tags, fused parts or gaps INS773NPH): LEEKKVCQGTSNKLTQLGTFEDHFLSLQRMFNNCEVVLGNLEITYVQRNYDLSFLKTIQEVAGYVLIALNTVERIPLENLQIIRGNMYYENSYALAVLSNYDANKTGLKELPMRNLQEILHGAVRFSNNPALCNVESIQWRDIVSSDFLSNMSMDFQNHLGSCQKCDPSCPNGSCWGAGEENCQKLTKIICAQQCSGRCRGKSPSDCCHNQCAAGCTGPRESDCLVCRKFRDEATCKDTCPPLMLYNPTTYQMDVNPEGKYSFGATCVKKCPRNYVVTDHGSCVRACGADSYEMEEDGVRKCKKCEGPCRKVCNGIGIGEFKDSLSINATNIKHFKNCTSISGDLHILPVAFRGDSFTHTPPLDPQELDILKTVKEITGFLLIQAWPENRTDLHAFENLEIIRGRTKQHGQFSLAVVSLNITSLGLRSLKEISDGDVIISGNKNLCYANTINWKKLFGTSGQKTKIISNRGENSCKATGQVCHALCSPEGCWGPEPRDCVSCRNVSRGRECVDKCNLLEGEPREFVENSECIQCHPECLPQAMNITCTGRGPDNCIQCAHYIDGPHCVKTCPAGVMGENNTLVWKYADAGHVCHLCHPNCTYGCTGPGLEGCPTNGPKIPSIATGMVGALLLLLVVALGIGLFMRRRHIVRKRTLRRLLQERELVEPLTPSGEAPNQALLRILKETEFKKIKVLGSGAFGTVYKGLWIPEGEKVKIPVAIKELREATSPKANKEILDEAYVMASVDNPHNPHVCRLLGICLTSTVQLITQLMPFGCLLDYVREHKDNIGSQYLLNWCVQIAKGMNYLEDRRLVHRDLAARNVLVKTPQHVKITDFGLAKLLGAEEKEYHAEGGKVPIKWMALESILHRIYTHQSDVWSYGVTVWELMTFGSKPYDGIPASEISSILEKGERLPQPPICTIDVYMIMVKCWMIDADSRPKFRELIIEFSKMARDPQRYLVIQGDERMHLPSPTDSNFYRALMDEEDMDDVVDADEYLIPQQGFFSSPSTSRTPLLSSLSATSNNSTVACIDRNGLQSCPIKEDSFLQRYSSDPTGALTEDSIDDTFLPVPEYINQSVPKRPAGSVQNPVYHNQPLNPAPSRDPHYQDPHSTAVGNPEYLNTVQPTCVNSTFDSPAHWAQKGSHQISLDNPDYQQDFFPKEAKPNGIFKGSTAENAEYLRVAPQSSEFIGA
T2 sequence (P00533 25-1210): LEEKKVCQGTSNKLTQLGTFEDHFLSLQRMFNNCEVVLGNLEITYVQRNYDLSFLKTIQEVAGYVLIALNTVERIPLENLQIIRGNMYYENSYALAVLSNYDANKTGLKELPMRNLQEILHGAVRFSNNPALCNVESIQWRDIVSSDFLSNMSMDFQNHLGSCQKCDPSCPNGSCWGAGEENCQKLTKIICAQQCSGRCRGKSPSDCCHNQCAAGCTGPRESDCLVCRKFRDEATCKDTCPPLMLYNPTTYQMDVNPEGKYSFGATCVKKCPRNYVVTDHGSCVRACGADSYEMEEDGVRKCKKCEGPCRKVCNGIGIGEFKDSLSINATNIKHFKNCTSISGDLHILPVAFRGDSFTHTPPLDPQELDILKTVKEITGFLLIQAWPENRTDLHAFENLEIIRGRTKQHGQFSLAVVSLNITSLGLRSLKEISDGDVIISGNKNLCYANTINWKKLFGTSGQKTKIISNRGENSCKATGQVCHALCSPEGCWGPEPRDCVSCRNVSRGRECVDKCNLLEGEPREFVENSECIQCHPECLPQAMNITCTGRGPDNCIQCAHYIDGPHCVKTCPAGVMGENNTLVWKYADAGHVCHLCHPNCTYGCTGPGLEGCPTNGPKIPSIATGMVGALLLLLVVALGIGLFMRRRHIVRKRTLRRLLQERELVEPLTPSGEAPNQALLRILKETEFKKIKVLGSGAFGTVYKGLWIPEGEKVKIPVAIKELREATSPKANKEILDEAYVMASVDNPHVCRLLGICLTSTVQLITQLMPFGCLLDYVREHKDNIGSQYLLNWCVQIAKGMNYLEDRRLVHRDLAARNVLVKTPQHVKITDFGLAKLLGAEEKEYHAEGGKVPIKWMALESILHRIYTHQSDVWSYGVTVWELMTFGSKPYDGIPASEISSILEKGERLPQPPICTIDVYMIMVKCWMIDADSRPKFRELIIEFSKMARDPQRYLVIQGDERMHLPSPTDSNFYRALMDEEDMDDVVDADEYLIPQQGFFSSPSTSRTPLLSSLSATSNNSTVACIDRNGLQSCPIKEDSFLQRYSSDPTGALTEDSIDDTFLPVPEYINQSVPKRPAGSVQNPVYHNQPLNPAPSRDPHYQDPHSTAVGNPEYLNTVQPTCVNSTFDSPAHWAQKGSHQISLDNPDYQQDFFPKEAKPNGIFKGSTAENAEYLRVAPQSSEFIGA
T5 sequence (P04626 with tags, fused parts or gaps INS775YVMA): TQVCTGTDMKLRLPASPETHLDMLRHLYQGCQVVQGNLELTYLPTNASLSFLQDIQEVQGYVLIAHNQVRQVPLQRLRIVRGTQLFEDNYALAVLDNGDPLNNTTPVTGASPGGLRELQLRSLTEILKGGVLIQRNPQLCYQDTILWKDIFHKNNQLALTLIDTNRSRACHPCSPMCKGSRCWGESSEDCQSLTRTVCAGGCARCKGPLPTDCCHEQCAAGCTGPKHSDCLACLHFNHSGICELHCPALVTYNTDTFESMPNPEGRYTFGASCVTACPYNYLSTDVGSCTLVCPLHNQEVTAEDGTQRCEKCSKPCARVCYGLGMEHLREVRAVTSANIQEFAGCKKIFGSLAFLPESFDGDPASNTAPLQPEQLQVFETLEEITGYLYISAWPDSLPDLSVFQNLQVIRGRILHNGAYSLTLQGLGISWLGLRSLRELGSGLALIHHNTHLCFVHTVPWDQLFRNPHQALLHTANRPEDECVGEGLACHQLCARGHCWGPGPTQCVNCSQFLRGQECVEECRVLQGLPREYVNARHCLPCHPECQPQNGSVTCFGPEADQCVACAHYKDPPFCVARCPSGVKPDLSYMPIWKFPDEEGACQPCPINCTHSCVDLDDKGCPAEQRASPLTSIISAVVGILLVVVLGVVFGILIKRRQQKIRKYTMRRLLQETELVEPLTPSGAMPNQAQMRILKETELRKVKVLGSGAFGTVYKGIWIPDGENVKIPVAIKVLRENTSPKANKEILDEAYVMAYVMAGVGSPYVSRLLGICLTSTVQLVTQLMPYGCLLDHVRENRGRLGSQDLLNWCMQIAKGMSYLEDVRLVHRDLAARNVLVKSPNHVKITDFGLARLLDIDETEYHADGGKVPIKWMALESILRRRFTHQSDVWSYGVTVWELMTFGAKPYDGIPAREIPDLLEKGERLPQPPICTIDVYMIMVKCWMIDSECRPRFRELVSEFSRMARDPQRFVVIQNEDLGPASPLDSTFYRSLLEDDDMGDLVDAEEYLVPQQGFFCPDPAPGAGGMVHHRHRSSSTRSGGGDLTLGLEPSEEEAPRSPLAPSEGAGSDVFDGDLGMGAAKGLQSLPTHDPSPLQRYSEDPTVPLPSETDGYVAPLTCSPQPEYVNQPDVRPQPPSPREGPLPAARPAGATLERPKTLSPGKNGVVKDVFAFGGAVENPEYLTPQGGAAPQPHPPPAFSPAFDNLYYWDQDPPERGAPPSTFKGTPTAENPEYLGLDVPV
T3 sequence (P00533 25-1210 T790M/L858R): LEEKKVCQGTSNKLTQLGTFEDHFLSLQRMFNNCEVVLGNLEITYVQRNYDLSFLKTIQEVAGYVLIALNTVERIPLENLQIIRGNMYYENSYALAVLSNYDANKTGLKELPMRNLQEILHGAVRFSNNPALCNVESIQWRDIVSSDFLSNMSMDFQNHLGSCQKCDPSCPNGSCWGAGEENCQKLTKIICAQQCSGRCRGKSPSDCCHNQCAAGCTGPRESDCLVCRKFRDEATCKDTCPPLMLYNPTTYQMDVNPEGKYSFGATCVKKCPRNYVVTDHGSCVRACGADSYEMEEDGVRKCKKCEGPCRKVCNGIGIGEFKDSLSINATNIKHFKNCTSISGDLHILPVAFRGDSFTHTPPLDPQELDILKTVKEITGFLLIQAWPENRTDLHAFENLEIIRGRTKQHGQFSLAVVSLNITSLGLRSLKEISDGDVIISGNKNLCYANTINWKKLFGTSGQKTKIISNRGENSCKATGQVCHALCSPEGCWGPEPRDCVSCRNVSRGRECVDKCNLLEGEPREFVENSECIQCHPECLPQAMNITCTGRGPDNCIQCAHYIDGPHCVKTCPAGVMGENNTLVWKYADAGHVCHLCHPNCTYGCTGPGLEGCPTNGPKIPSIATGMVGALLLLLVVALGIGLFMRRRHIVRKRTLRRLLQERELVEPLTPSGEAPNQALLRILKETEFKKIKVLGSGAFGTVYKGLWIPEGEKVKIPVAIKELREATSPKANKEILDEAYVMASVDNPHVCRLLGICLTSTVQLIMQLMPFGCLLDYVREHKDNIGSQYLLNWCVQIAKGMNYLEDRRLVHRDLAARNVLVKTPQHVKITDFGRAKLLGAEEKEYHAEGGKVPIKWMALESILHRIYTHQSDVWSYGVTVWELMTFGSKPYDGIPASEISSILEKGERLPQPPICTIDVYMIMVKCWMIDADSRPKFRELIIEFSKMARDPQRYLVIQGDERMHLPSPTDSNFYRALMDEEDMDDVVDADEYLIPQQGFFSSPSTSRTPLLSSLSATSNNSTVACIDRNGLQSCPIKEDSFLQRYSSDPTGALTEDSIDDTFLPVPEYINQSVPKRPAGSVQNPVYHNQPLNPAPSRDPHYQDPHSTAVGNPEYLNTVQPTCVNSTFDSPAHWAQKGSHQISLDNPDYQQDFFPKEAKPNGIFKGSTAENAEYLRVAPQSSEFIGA

| Structure (SMILES) | GI50 [1] [nM] | GI50 (WT EGFR cell line A-431) [nM] | IC50 [3] [nM] | GI50 (OCI-LY-10 cells) [nM] | IC50 (WT EGFR) [nM] | IC50 (EGFR L858R&T790M) [nM] | IC50 [4] [nM] | IC50 [5] [nM] | GI50 (Ba/F3 EGFR ASV ins cells) [nM] | GI50 (Ba/F3 EGFR NPH ins cells) [nM] | GI50 [2] [nM] | GI50 (Ri-1 cells) [nM] | GI50 (DB cells) [nM] | GI50 (TMD-8 cells) [nM] |
| --- | --- | --- | --- | --- | --- | --- | --- | --- | --- | --- | --- | --- | --- | --- |
| C=CC(=O)Nc1cc(Nc2ncnc(Nc3cc(F)c(Cl)cc3C(C)(C)O)n2)c(OC)cc1N(C)CCN(C)C [Compound 12, N-(5-(4-(4-chloro-5-fluoro-2-(2-hydroxypropan-2-yl)phenylamino)-1,3,5-triazin-2-ylamino)-2-((2-(dimethylamino)ethyl)(methyl)amino)-4-methoxyphenyl)acrylamide] | 8.4 | 14.2 | 10.8 | 27.8 | 7.6 | 0.3 | 6.4 | 3.4 | 25.3 | 21.5 | 24.5 | 51.2 | > 3000 | 34.5 |
| C=CC(=O)Nc1cc(Nc2ncnc(Nc3cc(Cl)c(Cl)cc3C(C)(C)O)n2)c(OC)cc1N(C)CCN(C)C [Compound 15, N-(5-(4-(4,5-dichloro-2-(2-hydroxypropan-2-yl)phenylamino)-1,3,5-triazin-2-ylamino)-2-((2-(dimethylamino)ethyl)(methyl)amino)-4-methoxyphenyl)a crylamide] | 7.4 | 7.9 | 15.1 | 4.95 | 8.2 | 0.4 | 7.5 | 3.8 | 21.1 | 32.9 | 32.7 | 6.68 | 1340 | 2.44 |
| C=CC(=O)Nc1cc(Nc2ncnc(Nc3cc(F)c(F)cc3C(C)(C)O)n2)c(OC)cc1N1CC[C@@H]2CN(C)C[C@@H]21 [Compound 17, N-(5-(4-(4,5-difluoro-2-(2-hydroxypropan-2-yl)phenylamino)-1,3,5-triazin-2-ylamino)-4-methoxy-2-((3aR,6aR)-5-methylhexahydropyrrolo[3,4-b]pyrrol-1(2H)-yl)phenyl) acrylamide] | 3.7 | 13.2 | 13 | 41.5 | 13.5 | 0.3 | 7.8 | 6.1 | 19.6 | 25 | 37.7 | 28 | > 3000 | 53.7 |
| C=CC(=O)Nc1cc(Nc2ncnc(Nc3cc(F)c(F)cc3C(C)(C)O)n2)c(OC)cc1N1CC[C@@H]1CN(C)C [Compound 19, (R)-N-(5-(4-(4,5-difluoro-2-(2-hydroxypropan-2-yl)phenylamino)-1,3,5-triazin-2-ylamino)-2-(2-((dimethylamino)methyl)azetidin-1-yl)-4-methoxyphenyl)acrylamide] | 9.5 | 23.1 | 46.5 | 10.8 | 29.7 | 0.9 | 29.7 | 21.3 | 80.9 | 80 | 163 | 133 | > 3000 | 13 |
| C=CC(=O)Nc1cc(Nc2ncnc(Nc3cc(F)c(F)cc3C(C)(C)O)n2)c(OC)cc1N(C)C[C@H]1CCCN1C [Compound 20, (R)-N-(5-(4-(4,5-difluoro-2-(2-hydroxypropan-2-yl)phenylamino)-1,3,5-triazin-2-ylamino)-4-methoxy-2-(methyl((1-methylpyrrolidin-2-yl)methyl)amino)phenyl)acrylamide] | 7.7 | 16.5 | 25.3 | 99.8 | 27.2 | 0.5 | 9.4 | 11.3 | 30.8 | 51.5 | 68.1 | 56.2 | > 3000 | 103 |
| C=CC(=O)Nc1cc(Nc2ncnc(Nc3cc(F)c(F)cc3C(C)(C)O)n2)c(OC)cc1N1CCC[C@@H]1CN(C)C [Compound 21, (R)-N-(5-(4-(4,5-difluoro-2-(2-hydroxypropan-2-yl)phenylamino)-1,3,5-triazin-2-ylamino)-2-(2-((dimethylamino)methyl)pyrrolidin-1-yl)-4-methoxyphenyl)acrylamide] | 2.5 | 4.1 | 6.8 | 9.7 | 5.1 | 0.2 | 2.3 | 1.7 | 8.2 | 11.2 | 13.2 | 11.2 | > 3000 | 19.2 |

The remaining compounds from weak to strong by GI50 [1], led by results:

| GI50 [1] [nM] | GI50 (WT EGFR cell line A-431) [nM] | IC50 [3] [nM] | GI50 (OCI-LY-10 cells) [nM] | IC50 (WT EGFR) [nM] | IC50 (EGFR L858R&T790M) [nM] | IC50 [4] [nM] | IC50 [5] [nM] | GI50 (Ba/F3 EGFR ASV ins cells) [nM] | GI50 (Ba/F3 EGFR NPH ins cells) [nM] | Structure (SMILES) | GI50 [2] [nM] | GI50 (Ri-1 cells) [nM] | GI50 (DB cells) [nM] | GI50 (TMD-8 cells) [nM] |
| --- | --- | --- | --- | --- | --- | --- | --- | --- | --- | --- | --- | --- | --- | --- |
| 44.6 | 83.1 | 51.3 | 309 | 131 | 2 | 62.5 | 13.9 | 191 | 180 | C=CC(=O)Nc1cc(Nc2ncnc(Nc3ccc(F)c(F)c3C(C)(C)O)n2)c(OC)cc1N(C)CCN(C)C [Compound 9, N-(5-(4-(3,4-difluoro-2-(2-hydroxypropan-2-yl)phenylamino)-1,3,5-triazin-2-ylamino)-2-((2-(dimethylamino)ethyl)(methyl)amino)-4-methoxyphenyl)ac rylamide] | 156 | 700 | > 3000 | 551 |
| 33.4 | 52.6 | 36 | 250 | 47.6 | 0.9 | 35.1 | 16.5 | 114 | 81.3 | C=CC(=O)Nc1cc(Nc2ncnc(Nc3cc(F)c(Cl)c(F)c3C(C)(C)O)n2)c(OC)cc1N(C)CCN(C)C [Compound 16, N-(5-(4-(4-chloro-3,5-difluoro-2-(2-hydroxypropan-2-yl)phenylamino)-1,3,5-triazin-2-ylamino)-2-((2-(dimethylamino)ethyl)(methyl)amino)-4-methoxyphenyl)acrylamide] | 73.4 | 334 | > 3000 | 118 |
| 32.4 | 99.8 | 91.1 | 88 | 43.1 | 2.9 | 117 | 25.7 | 250 | 258 | C=CC(=O)Nc1cc(Nc2ncnc(Nc3cccnc3C(C)(C)O)n2)c(OC)cc1N(C)CCN(C)C [Compound 8, N-(2-((2-(dimethylamino)ethyl)(methyl)amino)-5-(4-(2-(2-hydroxypropan-2-yl)pyridin-3-ylamino)-1,3,5-triazin-2-ylamino)-4-methoxyphenyl)acrylamide] | 353 | > 3000 | > 3000 | 1780 |
| 18 | 29.1 | 38.4 | 155 | 31.3 | 1.1 | 26.5 | 15.8 | 84.1 | 55.4 | C=CC(=O)Nc1cc(Nc2ncnc(Nc3ccc(Cl)c(F)c3C(C)(C)O)n2)c(OC)cc1N(C)CCN(C)C [Compound 14, N-(5-(4-(4-chloro-3-fluoro-2-(2-hydroxypropan-2-yl)phenylamino)-1,3,5-triazin-2-ylamino)-2-((2-(dimethylamino)ethyl)(methyl)amino)-4-methoxyphenyl)acrylamide] | 58.7 | 136 | > 3000 | 102 |
| 10.9 | 42.8 | 61.1 | 276 | 58.9 | 1.1 | 42.4 | 22.1 | 91.3 | 93.6 | C=CC(=O)Nc1cc(Nc2ncnc(Nc3cc(F)c(F)cc3C(C)(C)O)n2)c(OC)cc1N(C)CCN1CCCC1 [Compound 18] | 136 | 446 | > 3000 | 81.7 |
